# Measured values from patent US10336792B2, “Antimicrobial peptide dendrimers” (priority 2014, dated 2019).
# Test system: P. aeruginosa PEJ2.6, PEJ9.1, ZEM1.A, ZEM9.A (clinical isolates)
# Type: cell-based, Pseudomonas aeruginosa
# Conditions: MH medium, 12-18 h
# Outline: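 Broth microdilution in Müller-Hinton medium, two-fold serial dilutions from a starting 32–256 μg/mL, compounds dissolved in PBS; inoculum about 5×10^5 CFU, incubated 37° C ~18 h. MIC taken as lowest concentration with no visible growth by eye; polymyxin as reference.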
substance,measurement,value
Polymyxin B [reference compound],MIC P. aeruginosa MDR clinical isolate PEJ2.6,1 µg/mL
same,MIC P. aeruginosa MDR clinical isolate PEJ9.1,2 µg/mL
same,MIC P. aeruginosa MDR clinical isolate ZEM1A,<1 µg/mL
same,MIC P. aeruginosa MDR clinical isolate ZEM9A,8 µg/mL
